Assay results reported in ChEMBL document CHEMBL4431361, “Development of indole sulfonamides as cannabinoid receptor negative allosteric modulators” (Bioorg Med Chem Lett, 2016).
Values belong to the molecule of their own block, whether it stands above or below them.

Legend:
Cannabinoid receptor 1 = Cannabinoid receptor 1 (Homo sapiens, UniProt P21554); assay: Negative allosteric modulation of human CB1 receptor expressed in CHO-K1 cells assessed as inhibition of CP55940 induced beta arrestin recruitment preincubated for 30 mins followed by addition of CP55940 for 90 mins by chemiluminescence assay; assay type: functional, cell-based
Chain of Cannabinoid receptor 1 (P21554 whole entry): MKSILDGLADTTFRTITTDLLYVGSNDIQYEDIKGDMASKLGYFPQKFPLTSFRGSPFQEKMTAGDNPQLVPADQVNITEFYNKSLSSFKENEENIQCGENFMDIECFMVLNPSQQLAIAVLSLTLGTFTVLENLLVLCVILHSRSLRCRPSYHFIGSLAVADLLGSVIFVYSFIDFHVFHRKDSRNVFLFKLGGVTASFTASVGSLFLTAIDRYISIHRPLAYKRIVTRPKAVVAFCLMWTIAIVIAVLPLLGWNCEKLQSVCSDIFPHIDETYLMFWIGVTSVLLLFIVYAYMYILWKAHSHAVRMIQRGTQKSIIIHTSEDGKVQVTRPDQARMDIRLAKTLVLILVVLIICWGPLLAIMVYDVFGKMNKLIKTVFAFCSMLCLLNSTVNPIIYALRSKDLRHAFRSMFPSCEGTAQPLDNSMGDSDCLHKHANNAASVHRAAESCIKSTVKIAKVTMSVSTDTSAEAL

[1] = Half life in human liver microsomes at 3 uM in presence of NADPH by LC-MS/MS analysis; assay type: ADME, Microsome
[2] = Half life in rat liver microsomes at 3 uM in presence of NADPH by LC-MS/MS analysis; assay type: ADME, Microsome
[3] = AUC (0 to 8 hrs) in NMRI mouse at 10 mg/kg, po; assay type: ADME, organism-based; design: time < 8 hr, dose 10 mg/kg, route oral; conditions: in vivo
[4] = Apparent permeability of the compound at 10 uM after 5 hrs by PAMPA; assay type: ADME
[5] = Ratio of drug level in NMRI mouse brain to blood after 4 hrs; assay type: ADME, tissue-based
[6] = Half life in NMRI mouse at 10 mg/kg, po; assay type: ADME, organism-based; conditions: in vivo
[7] = Tmax in NMRI mouse at 10 mg/kg, po; assay type: ADME, organism-based; conditions: in vivo
[8] = Cmax in NMRI mouse blood at 10 mg/kg, po; assay type: ADME, organism-based; design: dose 10 mg/kg, route oral
[9] = Ratio of drug level in NMRI mouse brain to blood after 2 hrs; assay type: ADME, tissue-based

Structure (SMILES): CS(=O)(=O)c1ccc(-c2ccc(CNS(=O)(=O)c3cc4ccccc4[nH]3)cc2)cc1
- IC50 (Cannabinoid receptor 1): 15 nM

Structure (SMILES): O=S(=O)(NCc1ccc(-c2ccc(F)cc2)cc1F)c1cc2cc(Cl)ccc2[nH]1
- half-life at 3 µM [1]: 2.43 h
- half-life at 3 µM [2]: 1.87 h
- IC50 (Cannabinoid receptor 1): 21 nM

Structure (SMILES): Cc1c(S(=O)(=O)NCCc2ccc(N3CCCCC3)cc2)[nH]c2ccccc12
- IC50 (Cannabinoid receptor 1): 200 nM

Structure (SMILES): COc1ccc(CNS(=O)(=O)c2[nH]c3ccccc3c2C)cc1
- IC50 (Cannabinoid receptor 1): 200 nM

Structure (SMILES): COc1ccc(CNS(=O)(=O)c2cc3ccccc3[nH]2)cc1
- half-life at 3 µM [1]: 0.0333 h
- IC50 (Cannabinoid receptor 1): 200 to 400 nM

Structure (SMILES): Cc1c(S(=O)(=O)NCCc2ccc(N(C)C)cc2)[nH]c2ccccc12
- half-life at 3 µM [1]: 0.217 h
- IC50 (Cannabinoid receptor 1): 300 nM

Structure (SMILES): COc1ccc(CNS(=O)(=O)c2cc3cc(OC)ccc3[nH]2)cc1
- IC50 (Cannabinoid receptor 1): 400 nM

Structure (SMILES): COc1cc(-c2ccc(CNS(=O)(=O)c3cc4ccccc4[nH]3)cc2)ccc1O
- IC50 (Cannabinoid receptor 1): 33 nM

Structure (SMILES): Cc1c(S(=O)(=O)NCCCN2CCOCC2)[nH]c2ccccc12
- IC50 (Cannabinoid receptor 1): > 1000 nM

Structure (SMILES): Cc1cc(-c2ccc(F)cc2)ccc1CNS(=O)(=O)c1cc2cc(Cl)ccc2[nH]1
- IC50 (Cannabinoid receptor 1): > 1000 nM

Structure (SMILES): Cc1c(S(=O)(=O)NCc2ccccc2)[nH]c2ccccc12
- IC50 (Cannabinoid receptor 1): > 1000 nM

Structure (SMILES): O=S(=O)(NCc1ccc(-c2ccsc2)cc1)c1cc2ccccc2[nH]1
- IC50 (Cannabinoid receptor 1): 12 nM

Structure (SMILES): CS(=O)(=O)c1ccc(-c2ccc(CNS(=O)(=O)c3cc4cc(Cl)ccc4[nH]3)cc2)cc1
- half-life at 3 µM [1]: 0.683 h
- half-life at 3 µM [2]: 0.6 h
- IC50 (Cannabinoid receptor 1): 15 nM

Structure (SMILES): CCc1c(S(=O)(=O)NCCc2ccc(N(C)C)cc2)[nH]c2ccc(Cl)cc12
- IC50 (Cannabinoid receptor 1): 130 nM

Structure (SMILES): Cc1c(S(=O)(=O)NCCN2CCOCC2)[nH]c2ccccc12
- IC50 (Cannabinoid receptor 1): > 1000 nM

Structure (SMILES): Cc1c(S(=O)(=O)NCc2cccc(Cl)c2)[nH]c2ccccc12
- IC50 (Cannabinoid receptor 1): 800 nM

Structure (SMILES): O=S(=O)(NCc1cccc(-c2ccc(F)cc2)c1)c1cc2ccccc2[nH]1
- IC50 (Cannabinoid receptor 1): 137 nM

Structure (SMILES): CCc1c(S(=O)(=O)NCc2ccc(Cl)cc2)[nH]c2ccc(Cl)cc12
- IC50 (Cannabinoid receptor 1): > 1000 nM

These reach a lower IC50 (Cannabinoid receptor 1). Values come first.

- IC50 (Cannabinoid receptor 1): 3 nM
Structure (SMILES): Cc1ccc(-c2ccc(CNS(=O)(=O)c3cc4ccccc4[nH]3)cc2)cc1

- half-life at 3 µM [1]: < 0.25 h
- half-life at 3 µM [2]: < 0.25 h
- IC50 (Cannabinoid receptor 1): 3 nM
Structure (SMILES): COc1ccc2[nH]c(S(=O)(=O)NCc3ccc(-c4ccc(F)nc4)cc3)cc2c1

- half-life at 3 µM [2]: < 0.25 h
- IC50 (Cannabinoid receptor 1): 1 nM
Structure (SMILES): O=S(=O)(NCc1ccc(-c2ccc(F)cc2)cc1)c1cc2ccccc2[nH]1

- AUC(0-t) at 8 h [3]: 4380 ng·h/mL
- Papp at 5 h, 10 µM [4]: 141 ×10⁻⁶ cm/s
- Kp at 4 h [5]: 0.8
- half-life [6]: 7.9 h
- Tmax [7]: 4 h
- IC50 (Cannabinoid receptor 1): 4 nM
- Cmax [8]: 672 ng/mL
Structure (SMILES): O=S(=O)(NCc1ccc(-c2ccc(F)nc2F)cc1)c1cc2cc(Cl)ccc2[nH]1

- IC50 (Cannabinoid receptor 1): 3 nM
Structure (SMILES): CN(C)c1ccc(-c2ccc(CNS(=O)(=O)c3cc4ccccc4[nH]3)cc2)cc1

- half-life at 3 µM [2]: < 0.25 h
- IC50 (Cannabinoid receptor 1): 4 nM
Structure (SMILES): O=S(=O)(NCc1ccc(-c2ccccc2)cc1)c1cc2ccc(Cl)cc2[nH]1

- half-life at 3 µM [1]: 1.85 h
- half-life at 3 µM [2]: 1.4 h
- IC50 (Cannabinoid receptor 1): 4 nM
Structure (SMILES): O=S(=O)(NCc1ccc(-c2ccc(F)cc2F)cc1)c1cc2cc(Cl)ccc2[nH]1

- IC50 (Cannabinoid receptor 1): 8 nM
Structure (SMILES): Cc1c(S(=O)(=O)NCc2ccc(-c3ccccc3)cc2)[nH]c2ccccc12

- half-life at 3 µM [2]: 0.433 h
- IC50 (Cannabinoid receptor 1): 8 nM
Structure (SMILES): COc1ccc2[nH]c(S(=O)(=O)NCc3ccc(-c4ccc(C#N)cc4)cc3)cc2c1

- IC50 (Cannabinoid receptor 1): 10 nM
Structure (SMILES): CCOc1ccc(-c2ccc(CNS(=O)(=O)c3cc4ccccc4[nH]3)cc2)cn1

- IC50 (Cannabinoid receptor 1): 5 nM
Structure (SMILES): O=S(=O)(NCc1ccc(-c2ccccc2)cc1)c1cc2ccc(F)cc2[nH]1

- AUC(0-t) at 8 h [3]: 4700 ng·h/mL
- Papp at 5 h, 10 µM [4]: 53.8 ×10⁻⁶ cm/s
- half-life [6]: 3 h
- Tmax [7]: 1 h
- Kp at 2 h [9]: 3.3
- IC50 (Cannabinoid receptor 1): 3 nM
- Cmax [8]: 848 ng/mL
Structure (SMILES): O=S(=O)(NCc1ccc(-c2ccc(F)cc2F)cn1)c1cc2cc(Cl)ccc2[nH]1

- half-life at 3 µM [2]: < 0.25 h
- IC50 (Cannabinoid receptor 1): 6 nM
Structure (SMILES): O=S(=O)(NCc1ccc(-c2ccccc2)cc1)c1cc2cc(Br)ccc2[nH]1
